Results as given in patent US9242975B2, “Heterocyclic-substituted pyridyl compounds useful as kinase inhibitors” (Bristol-Myers Squibb Company, priority 2012, dated 2016).

Molecular target: IRAK4 (Homo sapiens (Human), UniProt Q9NWZ3)
Test: IRAK4 Inhibition Assay
Format: biochemical
Settings: ATP 500 μM; FL-IPTSPITTTYFFFKKK peptide 1.5 μM; IRAK4 0.6 nM; 60 min at room temperature; Caliper LabChip 3000
Experimental: The assays were performed in U-bottom 384-well plates. The final assay volume was 30 μL prepared from 15 μL additions of enzyme and substrates (fluoresceinated peptide and ATP) and test compounds in assay buffer (20 mM HEPES pH 7.2, 10 mM MgCl2, 0.015% Brij35 and 4 mM DTT). The reaction was initiated by the combination of IRAK4 with substrates and test compounds. The reaction was incubated at room temperature for 60 min. and terminated by adding 45 μL of 35 mM EDTA to each sample. The reaction mixture was analyzed on the Caliper LabChip 3000 (Caliper, Hopkinton, Mass.) by electrophoretic separation of the fluorescent substrate and phosphorylated product. Inhibition data were calculated by comparison to no enzyme control reactions for 100% inhibition and vehicle-only reactions for 0% inhibition. The final concentrations of reagents in the assays are ATP, 500 μM; FL-IPTSPITTTYFFFKKK peptide 1.5 μM; IRAK4, 0.6 nM; and DMSO, 1.6%.

Sequence of IRAK4 (Q9NWZ3 whole entry): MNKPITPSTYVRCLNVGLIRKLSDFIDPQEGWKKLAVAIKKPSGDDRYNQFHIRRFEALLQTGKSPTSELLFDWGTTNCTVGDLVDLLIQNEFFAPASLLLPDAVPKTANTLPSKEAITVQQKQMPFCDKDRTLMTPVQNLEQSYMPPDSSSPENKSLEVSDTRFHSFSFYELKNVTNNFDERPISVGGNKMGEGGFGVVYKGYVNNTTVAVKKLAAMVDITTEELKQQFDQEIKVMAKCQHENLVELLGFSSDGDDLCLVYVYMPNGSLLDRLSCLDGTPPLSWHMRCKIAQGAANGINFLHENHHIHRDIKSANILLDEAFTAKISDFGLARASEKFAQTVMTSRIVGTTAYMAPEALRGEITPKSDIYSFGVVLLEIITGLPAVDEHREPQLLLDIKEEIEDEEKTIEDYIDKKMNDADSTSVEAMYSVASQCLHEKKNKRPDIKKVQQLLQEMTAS

IC50: 1.8 nM
Compound: CNC(=O)c1nc(-c2cnc(Nc3ccc4ncsc4c3)cc2NC(C)C)sc1C [Example 27, 2-(6-(benzo[d]thiazol-6-ylamino)-4-(isopropylamino)pyridin-3-yl)-N,5-dimethylthiazole-4-carboxamide]
